What is called IC50 is the concentration needed to halve the response being measured. A higher IC50 goes with lower potency.

The structures appear in SMILES notation.

The text below walks through data of ChEMBL document CHEMBL4665905, “2-Amino-N-heteroaryl-nicotimamides as Na1.8 Inhibitors” (ACS Med Chem Lett, 2020).

This assay addresses Sodium channel protein type 10 subunit alpha (Homo sapiens, UniProt Q9Y5Y9). The assay is described as follows: Inhibition of human Nav1.8 expressed in HEK293 cells by whole cell patch clamp assay. Format: cell-based. A general note: Patch clamp records ionic current or voltage across a cell membrane.

Sequence of Sodium channel protein type 10 subunit alpha (Q9Y5Y9 whole entry): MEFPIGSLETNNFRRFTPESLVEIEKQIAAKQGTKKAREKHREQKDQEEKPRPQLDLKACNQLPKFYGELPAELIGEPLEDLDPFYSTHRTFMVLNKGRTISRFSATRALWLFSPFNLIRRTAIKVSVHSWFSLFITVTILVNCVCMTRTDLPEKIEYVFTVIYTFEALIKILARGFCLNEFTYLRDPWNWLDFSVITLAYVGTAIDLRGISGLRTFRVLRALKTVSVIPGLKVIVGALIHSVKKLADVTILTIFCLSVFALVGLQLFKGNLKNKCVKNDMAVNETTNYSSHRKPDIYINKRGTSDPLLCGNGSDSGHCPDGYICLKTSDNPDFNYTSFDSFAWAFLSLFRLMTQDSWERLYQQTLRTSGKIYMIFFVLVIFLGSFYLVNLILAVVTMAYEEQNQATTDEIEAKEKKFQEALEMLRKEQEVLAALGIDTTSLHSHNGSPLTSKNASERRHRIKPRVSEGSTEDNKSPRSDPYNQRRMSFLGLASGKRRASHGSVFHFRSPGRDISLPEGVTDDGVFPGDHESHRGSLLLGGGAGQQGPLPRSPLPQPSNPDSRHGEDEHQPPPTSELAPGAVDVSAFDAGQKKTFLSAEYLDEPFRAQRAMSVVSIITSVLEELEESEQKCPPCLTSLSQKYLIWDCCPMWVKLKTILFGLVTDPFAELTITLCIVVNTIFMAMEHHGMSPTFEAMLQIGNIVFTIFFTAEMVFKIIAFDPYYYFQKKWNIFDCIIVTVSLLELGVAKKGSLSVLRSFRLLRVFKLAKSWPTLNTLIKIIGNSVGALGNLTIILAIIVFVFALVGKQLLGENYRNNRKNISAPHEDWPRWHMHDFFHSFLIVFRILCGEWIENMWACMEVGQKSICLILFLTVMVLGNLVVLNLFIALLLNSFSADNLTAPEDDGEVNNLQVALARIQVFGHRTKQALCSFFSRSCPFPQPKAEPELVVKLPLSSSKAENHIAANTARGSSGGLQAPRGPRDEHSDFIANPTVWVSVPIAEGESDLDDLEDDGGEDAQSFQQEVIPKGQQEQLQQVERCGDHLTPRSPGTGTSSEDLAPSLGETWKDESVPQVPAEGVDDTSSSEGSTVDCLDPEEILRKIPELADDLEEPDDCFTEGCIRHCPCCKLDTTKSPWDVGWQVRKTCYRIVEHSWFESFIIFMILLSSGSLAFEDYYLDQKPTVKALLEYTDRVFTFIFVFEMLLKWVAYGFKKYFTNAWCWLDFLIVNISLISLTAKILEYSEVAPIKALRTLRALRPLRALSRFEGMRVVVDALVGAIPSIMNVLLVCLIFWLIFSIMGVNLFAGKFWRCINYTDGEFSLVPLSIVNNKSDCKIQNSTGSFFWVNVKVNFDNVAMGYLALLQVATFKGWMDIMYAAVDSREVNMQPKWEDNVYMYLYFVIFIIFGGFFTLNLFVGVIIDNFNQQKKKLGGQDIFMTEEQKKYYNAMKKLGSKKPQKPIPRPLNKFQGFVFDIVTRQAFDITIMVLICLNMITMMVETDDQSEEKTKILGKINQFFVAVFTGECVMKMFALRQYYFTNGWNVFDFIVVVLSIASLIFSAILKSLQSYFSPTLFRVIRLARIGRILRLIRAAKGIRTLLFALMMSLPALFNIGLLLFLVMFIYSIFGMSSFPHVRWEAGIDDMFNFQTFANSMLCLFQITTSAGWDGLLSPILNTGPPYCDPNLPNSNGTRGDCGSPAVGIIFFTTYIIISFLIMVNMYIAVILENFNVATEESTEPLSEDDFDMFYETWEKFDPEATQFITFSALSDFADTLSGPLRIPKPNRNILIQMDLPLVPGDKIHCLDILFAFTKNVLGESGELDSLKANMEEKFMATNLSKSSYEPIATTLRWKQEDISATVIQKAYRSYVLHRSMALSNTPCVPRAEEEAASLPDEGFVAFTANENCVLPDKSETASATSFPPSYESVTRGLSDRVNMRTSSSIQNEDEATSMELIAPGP

For the molecule `NS(=O)(=O)c1cc(NC(=O)c2cc(Cl)cnc2N2CCCC(F)(F)CC2)ccn1`, half-maximal inhibition (IC50) was put at 3.9 nM.
